Data as given in patent US6667025B2 (Mitsubishi Pharma Corporation, priority 1997, dated 2003).

Legend:
IL-2 production = settings: same concentration range (up to 1000 nM); cited from earlier work
circulating lymphocytes [1] = assay: Circulating lymphocytes in peripheral blood of monkeys; format: in vivo, monkey; settings: oral
Text: (§1) In dogs and monkeys, as well as rats, oral administration with FTY720 also decreases the number of circulating lymphocytes in peripheral blood. The reduction of the number of T cells was especially remarkable. Withdrawal of FTY720 treatment recovered the number of lymphocytes in peripheral blood to the normal level within 2 weeks.

circulating lymphocytes [2] = assay: Circulating lymphocytes in peripheral blood of dogs; format: in vivo, dog; settings: oral
Text: as §1

[3] = system: popliteal lymph node of (LEW×BN) F1 rats injected with LEW spleen cells; assay: Local GvHR, enlargement of popliteal lymph node; format: in vivo, rat
T cell region of spleen = T cell region of spleen in vivo
lymphocytes = assay: Numbers of lymphocytes in blood, spleen, mesenteric lymph nodes and Peyer's patches in vivo; design: species or system rat; settings: 24 hours
Procedure: FTY720 at 0.1 and 1 mg/kg were administered orally to 6 week-old male F344 rats. At 3, 12, 24 hours after administration, peripheral blood, spleen, mesenteric lymph nodes, and Peyer's patches were removed and the lymphocyte numbers of these tissues were measured by using a flow cytometer, as known in the art (EPICS XL).

[4] = system: male F344 rat lymphocytes in lymphoid tissues; assay: Homing of transfused male lymphocytes in female rats (SRY PCR); format: in vivo; settings: 0.1 or 1 mg/kg oral 2.5 h before transfusion; 30 min after transfusion
Procedure: The decrease in circulating lymphocytes by FTY720 is due to the acceleration of lymphocyte homing to mesenteric and peripheral lymph nodes and Peyer's patches (FIGS. 13A-13D). For this experiment, after 2.5 h of administering FTY720 at 0.1 mg/kg or 1 mg/kg orally to female F344 rats, lymphocytes from male F344 rat were transfused intravenously into the rats. Thirty minutes after the transfusion, the peripheral blood, spleen, mesenteric lymph nodes, axillary lymph nodes, Peyer's patches, liver, and lung were removed. PCR amplification of SRY-1 gene, which is Y-chromosome specific, detected male lymphocytes in the tissue samples. The PCR primer sequences for SRY amplification were taken from a previous report (47). […]
An aliquot (10 μl) of the PCR products was electrophoresed on 2.5% agarose gel and the amplified DNA-fragments stained with SYBR Green I (Molecular Probes). The fluorescence intensity of the specific bands was visualized and measured by a fluorescence image analyzer (Fluor Imager 575, Molecular Dynamics). The number of male cells in 10^6 female cells, calculated with a standard curve made from a control amplification of SRY from a standard DNA extracted from 10^6 […], is indicated for each tissue noted in FIGS. 13A-13D.

rat HEV cell lines = assay: Adhesion of rat lymphocytes to HEV cells in vitro; format: cell-based
Procedure: After the labeling with calcein-AM, the lymphocytes were washed three times with ice-cold RPMI 1640 medium. […] After incubation, the plates were turned upside down and kept for 30 min to remove HEV-nonadherent cells. Calcein pre-labeled lymphocytes adhered to HEV monolayer were lysed by adding distilled water containing 1% nonidet P-40 and the developed fluorescence was measured at 485/530 nm with fluorescence microplate reader (CytoFluor 2350).

## CCCCCCCCc1ccc(CCC(N)(CO)CO)cc1.Cl [FTY720, 2-amino-2[2-(4-octylphenyl)ethyl]propane-1,3-diol hydrochloride]
IL-2 production
  production of IL-2: did not inhibit
Circulating lymphocytes [1]
  number of circulating lymphocytes in peripheral blood: decreases
Circulating lymphocytes [2]
  number of circulating lymphocytes in peripheral blood: decreases
[3]; local GvHR in rats
  immunosuppressive potency relative to CsA: 30 fold
[3]; oral, local GvHR
  oral dose that significantly inhibited enlargement of popliteal lymph node: ≥ 0.1 mg/kg
T cell region of spleen
  effect on T cell region of spleen: atrophy
lymphocytes; 0.1 mg/kg p.o.
  Number of lymphocytes, Peyer's patches: 551.5 ± 103.5 × 10^4 cells/tissue
  Number of lymphocytes, mesenteric lymph nodes: 421.8 ± 27.4 × 10^5 cells/tissue
  Number of lymphocytes, peripheral blood: 1071.9 ± 59.3 cells/μL
  Number of lymphocytes, spleen: 652.3 ± 31.2 × 10^5 cells/tissue
lymphocytes; 1 mg/kg p.o.
  Number of lymphocytes, Peyer's patches: 628.8 ± 61.1 × 10^4 cells/tissue
  Number of lymphocytes, mesenteric lymph nodes: 434.3 ± 33.2 × 10^5 cells/tissue
  Number of lymphocytes, peripheral blood: 667.2 ± 199.8 cells/μL
  Number of lymphocytes, spleen: 538.0 ± 74.1 × 10^5 cells/tissue
[4]
  pre-labeled lymphocytes in peripheral lymph nodes, Peyer's patch, mesenteric lymph nodes: accelerated lymphocyte homing
  pre-labeled lymphocytes in spleen: reduction
Rat HEV cell lines; Experiment 1, HEV cells pretreated 3 hours with 1 nmol/L
  Fluorescence intensity at 485/530, mean ± SE (n = 6): 1215.7 ± 191.2
Rat HEV cell lines; Experiment 1, HEV cells pretreated 3 hours with 10 nmol/L
  Fluorescence intensity at 485/530, mean ± SE (n = 6): 2926.0 ± 196.4
Rat HEV cell lines; Experiment 1, HEV cells pretreated 3 hours with 100 nmol/L
  Fluorescence intensity at 485/530, mean ± SE (n = 6): 2510.2 ± 118.8
Rat HEV cell lines; Experiment 2, lymphocytes pretreated 3 hours with 100 nmol/L
  Fluorescence intensity at 485/530, mean ± SE (n = 6): 1945.7 ± 5.2
Rat HEV cell lines; FTY720 1 nmol/L present
  Fluorescence intensity at 485/530, mean ± SE (n = 6): 2059.2 ± 112.6
Rat HEV cell lines; FTY720 10 nmol/L present
  Fluorescence intensity at 485/530, mean ± SE (n = 6): 2107.2 ± 106.5
Rat HEV cell lines; FTY720 100 nmol/L present
  Fluorescence intensity at 485/530, mean ± SE (n = 6): 2252.0 ± 70.8
Rat HEV cell lines; FTY720 1000 nmol/L present
  Fluorescence intensity at 485/530, mean ± SE (n = 6): 2383.2 ± 115.2
Rat HEV cell lines; in vitro, 120 min
  concentration that enhanced adhesion of calcein-prelabeled lymphocytes to HEV: ≥ 1 nmol/L
